The values below come from PubChem BioAssay (NCI).

Test systems include SW-620 colon; KM12 colon; ACHN renal; NCI-H460 lung; T-47D breast; A498 renal; NCI-H23 lung; HCT-15 colon; K-562 leukemia; M14 melanoma.
Assay in all cases: NCI tumour cell line growth inhibition, 48 h

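Assay format: 96-well plates, 48-hour exposure. GI50 is the concentration that inhibits growth by half. Definition used: TGI = concentration required for complete inhibition of growth.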

With `Cn1cccc1-c1ccc(-c2ccc(CO)[se]2)[se]1`, the TGI in the assay with SW-620 colon was greater than 100 µM; with KM12 colon, 50.5 µM; in the assay on ACHN renal it was greater than 100 µM; with NCI-H460 lung, greater than 100 µM; with T-47D breast, greater than 83.7 µM; in the assay with A498 renal, greater than 100 µM. Besides, the TGI with NCI-H23 lung is greater than 90 µM; with HCT-15 colon it was greater than 100 µM; with K-562 leukemia it was greater than 100 µM; in the assay on M14 melanoma, greater than 100 µM.

For the compound `COC(C/C(=C/CO[Si](C(C)C)(C(C)C)C(C)C)C(=O)N(COCC[Si](C)(C)C)c1ccccc1I)OC`, the TGI with SW-620 colon, in the assay with KM12 colon, in the assay with ACHN renal, in the assay with NCI-H460 lung, with T-47D breast and in the assay on A498 renal was greater than 100 µM each time. Besides, the TGI in the assay with NCI-H23 lung is 79.5 µM; in the assay on HCT-15 colon it was greater than 100 µM; in the assay with K-562 leukemia it was greater than 100 µM; in the assay with M14 melanoma, greater than 100 µM.

On to `CC(=O)O[C@H]1CC[C@@]2(C)C(=CC[C@@H]3[C@@H]2CC[C@]2(C)C(=N/O)/C(=C\c4ccccc4)C[C@@H]32)C1`, for which the TGI in the assay with SW-620 colon was greater than 60.9 µM; in the assay on KM12 colon, 10.6 µM; with ACHN renal, greater than 100 µM; in the assay on NCI-H460 lung, 97.9 µM; in the assay with T-47D breast, greater than 93.7 µM; with A498 renal it was 33 µM. Further, the TGI is greater than 100 µM in the assay with NCI-H23 lung, greater than 100 µM in the assay on HCT-15 colon, greater than 100 µM in the assay with K-562 leukemia and 39.3 µM in the assay with M14 melanoma.

Take `Cc1cc(S(=O)(=O)Nc2nc3ncccc3[nH]2)c(S)cc1Cl`: the TGI with SW-620 colon, in the assay on KM12 colon, in the assay with ACHN renal, with NCI-H460 lung, with T-47D breast and in the assay on A498 renal was greater than 100 µM each time. The TGI in the assay on NCI-H23 lung, in the assay on HCT-15 colon, in the assay with K-562 leukemia and in the assay with M14 melanoma was greater than 100 µM in each case.

On to `NCCCN(CCCCN(CCCN)C(=O)OCc1ccccc1)C(=O)OCc1ccccc1`, for which the TGI in the assay with SW-620 colon, in the assay with KM12 colon, in the assay on ACHN renal, in the assay with NCI-H460 lung, in the assay on T-47D breast and in the assay on A498 renal was greater than 100 µM each time. Further, the TGI in the assay with NCI-H23 lung, with HCT-15 colon, in the assay with K-562 leukemia and with M14 melanoma was greater than 100 µM throughout.

Turning to `COC(=O)[C@@H]1CS(=O)(=O)C(C(C)C)N1C(C)=O` (stereo partly drawn), the TGI in the assay with SW-620 colon, in the assay with KM12 colon, in the assay on ACHN renal, in the assay with NCI-H460 lung, with T-47D breast and in the assay on A498 renal was greater than 100 µM throughout. In addition, the TGI in the assay with NCI-H23 lung, with HCT-15 colon, in the assay with K-562 leukemia and in the assay with M14 melanoma was greater than 100 µM in each case.

For `O=c1[nH]nc(-c2ccccc2)n1/N=C/c1ccc([N+](=O)[O-])o1`, the TGI in the assay with SW-620 colon is 15.2 µM; with KM12 colon, 23.2 µM; in the assay on ACHN renal, 14.4 µM; in the assay with NCI-H460 lung, greater than 22.6 µM; with T-47D breast, greater than 96.4 µM; in the assay with A498 renal, 23 µM. Moreover, the TGI in the assay on HCT-15 colon was 17.3 µM; with K-562 leukemia, greater than 77.1 µM; in the assay on M14 melanoma it was 11.2 µM.

For the compound `COc1ccc(C2C3=C(N=C4SC(C(C)=O)=C(C)N42)c2ccccc2CC3)cc1` (stereo not drawn), the TGI with SW-620 colon, in the assay on KM12 colon, in the assay with ACHN renal, with T-47D breast, in the assay on A498 renal and in the assay with NCI-H23 lung was greater than 100 µM throughout. Besides, the TGI in the assay on HCT-15 colon and in the assay on M14 melanoma was greater than 100 µM in each case.

Take `Cc1ccc(S(=O)(=O)N2C[C@@H]3CC[C@]4(CO[Si](C)(C)C(C)(C)C)N[C@@H](c5ccccc5)[C@H]2[C@H]34)cc1`: the TGI with SW-620 colon was greater than 100 µM; in the assay with KM12 colon, greater than 100 µM; in the assay on ACHN renal, greater than 100 µM; in the assay with NCI-H460 lung, greater than 100 µM; with T-47D breast it was 52.6 µM; in the assay on A498 renal, greater than 100 µM. In addition, the TGI in the assay on NCI-H23 lung, in the assay with HCT-15 colon, in the assay with K-562 leukemia and with M14 melanoma was greater than 100 µM throughout.

Regarding `CC(C)(C)OC(=O)NC12C3C4C1C1C2C3C41NC(=O)OC(C)(C)C` (stereo not drawn), the TGI with SW-620 colon was greater than 100 µM; in the assay with KM12 colon it was 39.3 µM; in the assay on ACHN renal, greater than 100 µM; in the assay on NCI-H460 lung, greater than 100 µM; in the assay on T-47D breast it was greater than 100 µM; with A498 renal, greater than 100 µM. Moreover, the TGI in the assay with NCI-H23 lung, with HCT-15 colon, in the assay on K-562 leukemia and in the assay with M14 melanoma was greater than 100 µM throughout.

On to `C1=C(c2ccccc2)C(N2CCOCC2)Oc2ccccc21` (stereo not drawn), for which the TGI was greater than 100 µM in the assay with SW-620 colon; greater than 100 µM in the assay with KM12 colon; greater than 100 µM in the assay with ACHN renal; greater than 100 µM with NCI-H460 lung; greater than 100 µM in the assay on T-47D breast; 92.3 µM in the assay on A498 renal. Moreover, the TGI with NCI-H23 lung, in the assay with HCT-15 colon, in the assay on K-562 leukemia and in the assay on M14 melanoma was greater than 100 µM throughout.

Regarding `CCn1c(=O)c2nc(SC)sc2n(-c2ccc(C)cc2)c1=O`, the TGI in the assay with SW-620 colon, in the assay on KM12 colon, in the assay with ACHN renal, in the assay with NCI-H460 lung, with T-47D breast and in the assay on A498 renal was greater than 100 µM throughout. Moreover, the TGI with NCI-H23 lung is greater than 100 µM; with HCT-15 colon, greater than 100 µM; in the assay on K-562 leukemia, greater than 100 µM; with M14 melanoma it was greater than 45.2 µM. Besides, in the assay on A498 renal, the GI50 is 28.2 µM.

In the case of `Cc1cccc2c(N)c3cccc(C(=O)NCC[N+](C)(C)Cc4ccc([N+](=O)[O-])s4)c3nc12`, the TGI in the assay on SW-620 colon is greater than 66.3 µM; in the assay with KM12 colon it was greater than 54.3 µM; in the assay on ACHN renal, greater than 49.2 µM; in the assay with NCI-H460 lung, 16.5 µM; in the assay with T-47D breast, greater than 67.6 µM; in the assay with A498 renal it was 23.6 µM. Further, the TGI in the assay on NCI-H23 lung was 21.9 µM; with HCT-15 colon, greater than 100 µM; with K-562 leukemia, 27.9 µM; with M14 melanoma, 39.7 µM.
